Assay [1] deals with T1, TRPM4 (TRPM4b) (Homo sapiens, UniProt Q8TD43, E7K).
T1 construct: full-length human TRPM4b CDS subcloned into pcI-neo, expressed in HEK293 cells (original clone in pcDNA4TO-Flag); homotetramer (known biology)
Kind of assay: inside-out patch clamp, HEK293, reactivation after desensitization, Hill fit. Type of assay: cell-based. The following applies: read-out: apparent EC50; Kd (abstract). Background: In patch-clamp work, channel activity is measured electrically.

The target of assay [2] is T2, TRPM4 (TRPM4b) (Homo sapiens, UniProt Q8TD43).
T2 construct: full-length human TRPM4b CDS subcloned into pcI-neo, expressed in HEK293 cells (original clone in pcDNA4TO-Flag); homotetramer (known biology)
T2 sequence (Q8TD43 whole entry): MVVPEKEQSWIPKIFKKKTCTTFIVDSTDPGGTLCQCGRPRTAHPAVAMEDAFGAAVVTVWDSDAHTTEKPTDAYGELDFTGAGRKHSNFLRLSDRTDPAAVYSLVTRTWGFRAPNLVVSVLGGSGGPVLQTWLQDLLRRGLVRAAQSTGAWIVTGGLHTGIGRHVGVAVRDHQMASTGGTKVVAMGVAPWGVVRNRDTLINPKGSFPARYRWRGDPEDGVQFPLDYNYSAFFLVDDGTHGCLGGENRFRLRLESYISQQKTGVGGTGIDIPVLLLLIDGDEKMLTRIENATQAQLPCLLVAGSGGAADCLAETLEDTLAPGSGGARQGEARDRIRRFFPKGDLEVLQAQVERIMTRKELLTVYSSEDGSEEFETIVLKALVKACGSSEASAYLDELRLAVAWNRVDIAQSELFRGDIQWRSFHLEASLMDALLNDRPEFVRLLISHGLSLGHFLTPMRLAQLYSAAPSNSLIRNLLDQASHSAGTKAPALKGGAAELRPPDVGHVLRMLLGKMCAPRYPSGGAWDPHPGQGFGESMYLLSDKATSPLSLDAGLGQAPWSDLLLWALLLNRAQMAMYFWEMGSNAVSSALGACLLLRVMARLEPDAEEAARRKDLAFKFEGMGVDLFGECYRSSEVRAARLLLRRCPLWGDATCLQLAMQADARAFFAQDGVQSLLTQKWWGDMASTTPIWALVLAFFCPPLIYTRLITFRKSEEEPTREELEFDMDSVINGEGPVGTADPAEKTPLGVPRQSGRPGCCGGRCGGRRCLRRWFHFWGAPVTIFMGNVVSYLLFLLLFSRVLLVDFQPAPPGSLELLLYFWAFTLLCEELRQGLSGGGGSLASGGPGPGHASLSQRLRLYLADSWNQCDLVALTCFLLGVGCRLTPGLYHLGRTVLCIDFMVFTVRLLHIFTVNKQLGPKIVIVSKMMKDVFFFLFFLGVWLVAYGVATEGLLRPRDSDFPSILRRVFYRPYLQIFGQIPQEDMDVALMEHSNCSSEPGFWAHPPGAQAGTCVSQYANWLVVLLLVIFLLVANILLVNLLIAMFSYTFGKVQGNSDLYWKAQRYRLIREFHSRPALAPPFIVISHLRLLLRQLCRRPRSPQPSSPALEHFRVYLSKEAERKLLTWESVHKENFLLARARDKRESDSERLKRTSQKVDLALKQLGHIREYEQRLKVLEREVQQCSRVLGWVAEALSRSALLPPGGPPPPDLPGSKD
The description is as above. The following applies: read-out: apparent EC50; Kd (abstract). It is filed as cell-based.

We go through 1 compound from PMC8146980, “An Arrhythmic Mutation E7K Facilitates TRPM4 Channel Activation via Enhanced PIP2 Interaction” (Cells, 2021).

T1 sequence (Q8TD43 whole entry E7K): as the sequence (Q8TD43 whole entry) above, with E7K counted along it

Turning to `CCCCCCCC(=O)OC[C@H](COP(=O)(O)O[C@@H]1[C@H](O)[C@H](O)[C@@H](OP(=O)(O)O)[C@H](OP(=O)(O)O)[C@H]1O)OC(=O)CCCCCCC` [diC8-PI(4,5)P2], the concentration giving a half-maximal response (EC50) (as a rule, the concentration needed to bring the measured effect to its halfway point) on TRPM4 (TRPM4b) [1] worked out at 1440 ± 200 nM; on TRPM4 (TRPM4b) [2] it was 2400 ± 230 nM.
